This is an account of results in patent US12383505B2, “Nanoparticle for the remodeling of cancer-associated fibroblasts” (University of South Carolina, priority 2021, dated 2025).

One assay deals with NIH3T3 cells. Nature of the assay: DOX induced CAF differentiation, immunocytochemistry of α-SMA and fibronectin. Particulars: 0.05 μM of free DOX for 48 hours. In kind it is cell-based, mouse. The text has this: (§1) Anthracycline-containing regimens are predominantly used in neoadjuvant chemotherapy for breast cancer. See, J. Wang, T. A. Buchholz, L. P. Middleton, D. C. Allred, S. L. Tucker, H. M. Kuerer, F. J. Esteva, G. N. Hortobagyi, A. A. Sahin, Cancer 2002, 94, 3107; M. S. van Ramshorst, A. van der Voort, E. D. van Werkhoven, I. A. Mandjes, I. Kemper, V. O. Dezentjé, I. M. Oving, A. H. Honkoop, L. W. Tick, A. J. van de Wouw, The Lancet Oncology 2018. However, only a little benefit was achieved from this neoadjuvant chemotherapy in the majority of patients. […] Chen, Y.-A. Lai, Y.-C. Lin, J.-W. Ma, L.-F. Huang, N.-S. Yang, C.-T. Ho, S.-C. Kuo, T.-D. Way, Journal Of Agricultural And Food Chemistry 2013, 61, 11817; N. Chintalaramulu, R. Vadivelu, N. Nguyen, I. Cock, Inflammopharmacology 2020, especially at lower doses. To investigate the relationship between DOX and the differentiation and transdifferentiation of CAF and the potential effect of T-CeNP in inhibiting DOX-induced metastasis, T-CeNP was added to NIH3T3 and 4T1 cells either before or after receiving DOX treatment. The expression of the CAF related proteins, including α-SMA and fibronectin, and metastasis-associated E-cadherin were evaluated by immunocytochemistry. […] The quantitative comparison of their corresponding fluorescence intensities further verified these trends. […]

In another assay the test system is 4T1 cells. Nature of the assay: DOX induced EMT, immunocytochemistry of E-cadherin. Format: cell-based, murine. The following applies: 0.05 μM of free DOX for 48 hours.
Text: as §1

For another assay, the system named is 4T1-luc orthotopic tumor. Nature of the assay: Neoadjuvant chemotherapy in orthotopic breast cancer model: primary tumor. Particulars: i.v., CeNP 1 mg/kg, DOX 3 mg/kg, every 3 days for 4 times. In kind it is in vivo, BALB/c mice. As for the experimental part:
(§2) The 4T1 orthotopic model was established following our previous method with a minor modification. All animal experiments were conducted in accordance with NIH regulations and approved by the Institutional Animal Care and Use Committee of the University of South Carolina. 4T1/Luc2 cells (2×10^5 in 20 μl PBS) were injected into the right 4th mammary fat pad of 6-8 weeks female BALB/c mice, and the primary tumor growth was monitored through bioluminescence signal using IVIS imaging system. Two weeks post tumor cell inoculation, the mice were randomly divided into 6 groups (n=10), including control, T-CeNP, T-DOX, free DOX, T-CeNP+T-DOX, and T-CeNP+ Free DOX, and received corresponding neoadjuvant chemotherapy, surgery, and postoperative chemotherapy. In brief, for neoadjuvant chemotherapy, the drugs were intravenously injected at a CeNP dosage of 1 mg/kg and DOX dosage of 3 mg/kg every 3 days for 4 times. Specifically, for the groups of
(§3) T-CeNP+T-DOX and T-CeNP+ free DOX, T-CeNP was administrated to mice 2 days prior to T-DOX or Free DOX treatment. Two days after the last dose, all mice underwent complete
surgical removal of the tumors following our previous method. Two days after the surgery, the mice received another 3 times administration of T-CeNP, T-DOX, free DOX, and their combination as post-surgical chemotherapy. […]

Assay [1] has as its system 4T1-luc lung and liver metastasis. Put plainly: Post-surgery lung and liver metastasis in orthotopic breast cancer model. Format: in vivo, BALB/c mice. Here is the method:
as §2, §3
surgical removal of the tumors following our previous method. Two days after the surgery, the mice received another 3 times administration of T-CeNP, T-DOX, free DOX, and their combination as post-surgical chemotherapy. At the end of the study (day 24), the mice were sacrificed, and the lung and liver were harvested for ex vivo bioluminescence imaging to examine the metastasis.
The harvested tumors and major organs were fixed with 4% paraformaldehyde and processed by paraffin sectioning and frozen sectioning. Tissue sections (heart, liver, spleen, and kidney) and lung sections were hematoxylin and eosin (H&E) stained for acute toxicity evaluation and lung metastasis evaluation. […] All the immunofluorescence images were recorded with a fluorescence microscope (Evos™ FL, ThermoFisher Scientific, MA, USA).

[2] abbreviates: ex vivo bioluminescence imaging, day 24.

With `COc1cccc2c1C(=O)c1c(O)c3c(c(O)c1C2=O)C[C@@](O)(C(=O)CO)C[C@@H]3O[C@H]1C[C@H](N)[C@H](O)[C@H](C)O1` [free DOX, doxorubicin], in the assay on NIH3T3 cells, the “level of α-SMA and fibronectin” value is “boosted level of α-SMA and fibronectin”. Moreover, the E-cadherin expression entry with 4T1 cells is “declined E-cadherin expression”. Also, the primary tumor size result in the assay on 4T1-luc orthotopic tumor is listed as “only slightly reduced the size of the primary tumor”. In addition, in assay [1] (setting [2]), the liver metastasis entry is listed as “inductive effect” and the lung metastasis occurrence result was “developed lung metastasis”. Besides, the lung metastasis nodules entry in assay [1] (nodules on the surface of lung) was “induced more metastasis nods in the lung”.
